Experimental data: patent publication US20120035531A1, “ON-DEMAND AND REVERSIBLE DRUG RELEASE BY EXTERNAL CUE” (PRESIDENT AND FELLOWS OF HARVARD COLLEGE, priority 2009, published 2012)

Experiments:
MCF7 breast cancer cells = assay: Bioactivity of ultrasound-released Mitoxantrone: MCF7 cell viability; assay type: cell-based; conditions: 24 hours, ultrasound-released vs fresh Mitoxantrone solution 0.1 to 20 μg/mL
Experimental: The bioactivity of the released Mitoxantrone in example 1 was studied by incubating MCF7 breast cancer cells in the Mitoxantrone solution, and measuring the cell viability after 24 hours. Fresh Mitoxantrone solutions (unmixed with polymer) with various concentrations ranging from 0.1 to 20 μg/mL were also used to incubate the same number of MCF7 breast cancer cells.

[1] = In vitro release of encapsulated Mitoxantrone from alginate hydrogel with ultrasound; assay type: physicochemical
Experimental: Alginate hydrogels containing 0.825 mg/mL of Mitoxantrone were prepared by mixing alginate aqueous solution with slurries of CaSO4, to a final concentration of 50 mM Ca^2+ and 2% alginate (w/w) polymer. The gel was cast between two glass slides and cut into discs of approximately 10 mm diameter and 2 mm thickness. Thereafter, hydrogels were swollen overnight in the commercially available Dulbecco's Modified Eagle's Medium (DMEM). Hydrogel disks so prepared were next placed in a 15 mL plastic tube with 5 ml of DMEM. One group of the sample hydrogels were subjected to low-frequency ultrasound with frequency of 20 KHz and intensity of 1 watt for 5 min per hour. A further group comprising control hydrogels, similarly prepared, were not subjected to any stimulation. FIGS. 1A and 1B show the power profiles of ultrasound on the two groups of hydrogels.

SMILES: O=C1c2c(O)ccc(O)c2C(=O)c2c(NCCNCCO)ccc(NCCNCCO)c21 [Mitoxantrone]
- cell viability (MCF7 breast cancer cells): reduces cell viability by the same amount as a fresh Mitoxantrone solution of equivalent concentration
- level of enhanced release rates across ultrasound pulses ([1]; 20 KHz, 1 watt, 5 min per hour): all on the same level
- increase of cumulative release amount ([1]; 5 min of ultrasound per hour, 20 KHz, 1 watt, vs control hydrogels): ~70%
- increase of release rates by ultrasound stimulation ([1]; alginate hydrogel 0.825 mg/mL Mitoxantrone in DMEM, 20 KHz, 1 watt, 5 min per hour, vs no stimulation): approximately 10 times
- rate of release after removing the ultrasound ([1]; alginate hydrogel in DMEM): decayed to negligible levels
